Our source for the Activity, inhibition and IC50 values is ChEMBL document CHEMBL1152443, “Three adducts of butenolide and apigenin glycoside from the leaves of Machilus japonica” (J Nat Prod, 2009).

Each structure is given as a SMILES string. The source made the active and inactive calls. The rule behind the calls is not given here.

For experiment [1], the system named is Geobacillus stearothermophilus. Kind of experiment: Inhibition of Bacillus stearothermophilus alpha-glucosidase type IV at 10ug/mL.
Experiment [2] concerns Geobacillus stearothermophilus. Briefly: Inhibition of Bacillus stearothermophilus alpha-glucosidase type IV at 100ug/mL.
The test system of a further experiment is PC-3. Kind of experiment: Cytotoxicity against human PC3 cells. The format is functional, cell-based.
Experiment [3] in a line: Inhibition of Bacillus stearothermophilus alpha-glucosidase type IV. On the set-up: species or system Geobacillus stearothermophilus.

On to `CCCCCCCCCC[C@@H]1c2c(cc(O)c3c(=O)cc(-c4ccc(O[C@@H]5O[C@H](CO)[C@@H](O)[C@H](O)[C@H]5O)cc4)oc23)OO[C@@]12C(=O)O[C@H](C)C2=O`, for which the result in experiment [1] was inactive. For the same molecule, the inhibition in experiment [2] turned out to be 64.7%. Take `O=c1cc(-c2ccc(O[C@@H]3O[C@H](CO)[C@@H](O)[C@H](O)[C@H]3O)cc2)oc2cc(O)cc(O)c12`: in experiment [1], the result was inactive. This molecule showed an inhibition in experiment [2] of 18.7%. On to `CCCCCCCCCC[C@@H]1c2c(c([C@@H]3O[C@H](CO)[C@@H](O)[C@H](O)[C@H]3O[C@@H]3O[C@@H](C)[C@H](O)[C@@H](O)[C@H]3O)c(O)c3c(=O)cc(-c4ccc(O)cc4)oc23)OO[C@@]12C(=O)O[C@H](C)C2=O` [APIGENOSYLIDE A], for which, in the experiment on PC-3, the IC50 is > 30 µg/mL.

On to `CCCCCCCC[C@@H]1c2c(c([C@@H]3O[C@H](CO)[C@@H](O)[C@H](O)[C@H]3O[C@@H]3O[C@@H](C)[C@H](O)[C@@H](O)[C@H]3O)c(O)c3c(=O)cc(-c4ccc(O)cc4)oc23)OO[C@@]12C(=O)O[C@H](C)C2=O`, for which, in experiment [1], the result was inactive. In experiment [2], this molecule returned an inhibition of 93.7%. Turning to `C[C@H]1O[C@H](O[C@H]2[C@H](O)[C@@H](O)[C@@H](O[C@H]3[C@H](O)[C@@H](O)C(O)O[C@@H]3CO)O[C@@H]2CO)[C@H](O)[C@@H](O)[C@@H]1N[C@H]1C=C(CO)[C@@H](O)[C@H](O)[C@H]1O` (stereo partly drawn) [ACARBOSE], inhibition in experiment [3] was half-maximal at 33 nM (IC50).
